In patent US8859511B2, “Proliferation inhibitor of Helicobacter pylori bacteria” (The Noguchi Institute, priority 2008, dated 2014):

Assays:
[1] = system: H. pylori bacteria (ATCC 43504); test: H. pylori bacteria-proliferation inhibitory effect under in vitro (OD values at 600 nm); assay type: cell-based, Helicobacter pylori
[2] = system: H. pylori bacteria (ATCC 43504 strain); test: Count of viable H. pylori bacteria (colony count) from stomach of orally infected meriones unguiculatus; assay type: in vivo
Description: Antibacterial activities of GlcNAc derivatives towards H. pylori bacteria were investigated under in vivo by an experimental system using meriones unguiclatus infected orally with H. pylori bacteria.
Type strain of H. pylori bacteria (ATCC 43504 strain) was used as strain for infection. After stock strain thereof was recovered in Brain Heart Infusion (BHI) culture medium, which is available from Nissui Pharmaceutical Co., Ltd., including 10% horse serum, which is available from Dainippon Sumitomo Pharma Co., Ltd., and then cultured in the culture medium at 37° C. under microaerophilic condition using a microaerophilic incubator for 3 days. Finally the concentration thereof was adjusted to approximately 5×10^6 colony-forming-unit/mL (CFU/mL).
The meriones unguiculatus were fasted from 24 hours earlier of infection of Helicobacter pylori bacteria to 4 hours later of the infection thereof.
Approximately 1.0 mL of the liquid culture medium including Helicobacter pylori bacteria was administrated orally as 5×10^6 CFU/individual-animal to the fasted meriones unguiculatus. The day of infection was defined as initial day (i.e. Day 0)
Specimens prepared by using GlcNAcl-beta-O-Et of N-acetyl-glucosamine derivative according to following concentration of each group were administered.
Number of animal: 10 animals per one group
Means for administration: dietary administration
Stomach was respectively isolated from thus 10 animals of each group, and added into a centrifuging tube containing 5 mL of a phosphate buffer solution (PBS) to be homogenized with Polytron Homogenizer. 0.1 mL of the obtained homogenate was spread on Poamedia Vi Helico-S agar medium which is available from Eiken Chemical Co., Ltd. And then the bacterium were cultured at 37° C. under microaerophilic condition as same as above-mentioned incubation for culture. The formed violet colonies were counted.
They were carried out by above-mentioned statistical procedure.

[3] = assay type: physicochemical
Description: […]-beta-O-Et in a defined constant amount of the H. pylori bacteria-containing culture medium, which was cultured for 3 days, was measured by high performance liquid chromatography. A concentration of […]-beta-O-Et therein was determined by conversion using a calibration curve which was beforehand prepared from various definite concentrations of standard […]-beta-O-Et and peak areas of high pressure liquid chromatogram thereof. According to the determination, 6% of […]-beta-O-Et in the defined constant amount of the H. pylori bacteria-containing culture medium was reduced in comparison with initial concentration thereof. Consequently it was obvious that 6% of […]-beta-O-Et in the H. pylori bacteria-containing culture medium was decomposed to GlcNAc and ethanol (EtOH).

[4] = Body weight and general remarks of symptoms of infected meriones unguiculatus under dietary administration
Description: 4 weeks-old male meriones unguiculatus (SPF: specific-pathogen free), which were purchased from Kyudo Co., Ltd. (Br. Yoshitomi), were preliminarily reared for 23 days and then used for the experiments. The meriones unguiculatus were reared temperature of 24 plus or minus 3° C. and under relative humidity of 55 plus or minus 15% in all room for infected animals with conditions of lighting from a.m. 7 to p.m. 7 and ventilating 18 times per hour during preliminarily reared period and experiment period. 2 or 3 meriones unguiculatus were reared in a cage. All meriones unguiculates could freely get purified water as drinkable water and powdery feed MF as dry feed which is available from Oriental Yeast Co., Ltd. Incidentally the meriones unguiculatus were marked by application of dyestuff of picric acid solution for individual discrimination.
Amount of administration: 0.3% of the specimen blended with the powdery feed
The day of infection was defined as day 0. At 1st, 3rd, 6th, 10th, 13th, 17th, 20th, 24th, and 26th days, body weight was measured by a weight scale respectively.
Daily variance of the general remarks of symptoms thereof was observed.
As regards to body weight and count of colonies, average plus/minus standard error thereof in all groups was respectively calculated. […]

Q: For `CC(=O)N[C@H]1C(O)O[C@H](CO)[C@@H](O)[C@@H]1O` (stereo partly drawn) [GlcNAc, N-acetyl-glucosamine, reference compound], which proliferation inhibitory effect ([1]; concentration as high as 50 mM, FIG. 2) is on record?
A: does not show any proliferation inhibitory effect

Q: With `CCO[C@H]1O[C@H](CO)[C@@H](O)[C@H](O)[C@H]1NC(C)=O` [GlcNAcl-alpha-O-Et] as the molecule, how does the “statistical significant difference of the count of viable bacteria vs control group” value ([2]; 300 mg/kg/day, FIG. 8) read?
A: not observed at all

Q: What about the “count of H. pylori bacteria reduced in comparison with the control group” value (“count of H. pylori bacteria reduced” below) ([2]; 1000 mg/kg/day, FIG. 8) of the same molecule?
A: ⅓

Q: What about the “statistical significant difference of the count of viable bacteria vs control group” value ([2]; 1000 mg/kg/day, FIG. 8) of the same molecule?
A: eventually observed

Q: What about the “effect on inhibiting the proliferation of H. pylori bacteria under in vitro” value ([1]; in comparison with GlcNAcl-beta-O-Et, FIG. 6) of the same molecule?
A: did not almost indicate the effect

Q: Which “count of H. pylori bacteria reduced” value ([2]; 300 mg/kg/day dietary, all individuals, FIG. 5(a)) does the source give for `CCO[C@@H]1O[C@H](CO)[C@@H](O)[C@H](O)[C@H]1NC(C)=O` [GlcNAcl-beta-O-Et, Ethoxy-2-acetamide-2-deoxy-N-acetyl-beta-D-glucosaminide] here?
A: ½ to ⅓

Q: And the “count of H. pylori bacteria reduced” value ([2]; 300 mg/kg/day dietary, outliers rejected by Smirnov-Grubbs test, FIG. 5(b))?
A: ⅙

Q: And the “stability in the culture medium” value [3]?
A: stable

Q: And the “reduction of concentration in comparison with initial concentration (decomposed to GlcNAc and ethanol)” value ([3]; H. pylori bacteria-containing culture medium cultured for 3 days, HPLC)?
A: 6%

Q: And the “statistical significant difference of the body weight increase vs control group” value ([4]; 300 mg/kg/day dietary administration (0.3% in feed), to day 26, FIG. 4)?
A: not observed

Q: What about the “abnormal general remarks of symptoms” value ([4]; 300 mg/kg/day dietary administration, daily observation) of the same molecule?
A: could not be observed

Q: What about the “proliferation ability of H. pylori bacteria” value ([1]; culture medium containing not less than 5 mM) of the same molecule?
A: not more than 50%

Q: What about the “proliferation ability of H. pylori bacteria” value ([1]; culture medium containing not less than 20 mM) of the same molecule?
A: not more than 5%

Q: And the “H. pylori bacteria proliferation inhibited” value ([1]; not less than 25 or 50 mM, cultivation 96 hours, vs negative control, FIG. 1)?
A: not less than 50%

Q: With `CCO` [ethanol, reference compound] as the molecule, how does the proliferation inhibitory effect ([1]; 5 volume % (856 mM), FIG. 3) read?
A: shows proliferation inhibitory effect barely
